Legend:
[1] = molecular target: T1, Tyrosine-protein kinase JAK3 (Homo sapiens) (UniProt P52333); details: at 10 µM
T1 sequence (whole entry): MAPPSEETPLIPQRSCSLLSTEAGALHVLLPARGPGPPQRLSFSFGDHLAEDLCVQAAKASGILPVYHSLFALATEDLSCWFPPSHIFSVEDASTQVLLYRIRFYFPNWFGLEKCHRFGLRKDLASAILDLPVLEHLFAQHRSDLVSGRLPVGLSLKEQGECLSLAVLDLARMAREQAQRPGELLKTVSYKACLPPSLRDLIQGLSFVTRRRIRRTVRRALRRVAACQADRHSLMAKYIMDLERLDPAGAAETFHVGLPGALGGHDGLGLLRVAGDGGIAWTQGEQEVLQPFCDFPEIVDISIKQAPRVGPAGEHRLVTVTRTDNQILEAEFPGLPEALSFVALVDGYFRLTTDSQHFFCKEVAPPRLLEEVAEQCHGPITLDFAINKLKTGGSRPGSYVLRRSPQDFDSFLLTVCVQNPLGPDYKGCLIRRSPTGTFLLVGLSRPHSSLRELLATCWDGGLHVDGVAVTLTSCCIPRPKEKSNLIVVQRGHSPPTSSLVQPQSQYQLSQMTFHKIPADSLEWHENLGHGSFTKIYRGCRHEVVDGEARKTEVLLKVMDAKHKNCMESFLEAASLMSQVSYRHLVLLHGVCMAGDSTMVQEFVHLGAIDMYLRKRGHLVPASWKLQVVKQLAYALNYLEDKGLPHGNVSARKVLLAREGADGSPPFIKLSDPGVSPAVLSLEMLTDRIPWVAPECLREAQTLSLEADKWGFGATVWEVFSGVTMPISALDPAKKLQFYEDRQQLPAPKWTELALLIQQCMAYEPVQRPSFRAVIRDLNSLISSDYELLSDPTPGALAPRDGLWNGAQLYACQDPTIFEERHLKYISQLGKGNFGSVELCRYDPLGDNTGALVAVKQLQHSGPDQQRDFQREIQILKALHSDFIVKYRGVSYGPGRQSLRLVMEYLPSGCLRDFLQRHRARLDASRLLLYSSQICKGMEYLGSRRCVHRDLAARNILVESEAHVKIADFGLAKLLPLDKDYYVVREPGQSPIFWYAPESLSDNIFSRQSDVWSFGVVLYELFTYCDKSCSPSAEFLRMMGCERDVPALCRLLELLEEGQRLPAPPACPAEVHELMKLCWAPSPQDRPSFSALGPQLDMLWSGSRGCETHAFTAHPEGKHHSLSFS
Description: Inhibition of JAK3 (unknown origin) at 10 uM

[2] = molecular target: Tyrosine-protein kinase JAK2 (Homo sapiens) (UniProt O60674); details: at 10 µM
Tyrosine-protein kinase JAK2 (Homo sapiens), sequence (O60674 whole entry): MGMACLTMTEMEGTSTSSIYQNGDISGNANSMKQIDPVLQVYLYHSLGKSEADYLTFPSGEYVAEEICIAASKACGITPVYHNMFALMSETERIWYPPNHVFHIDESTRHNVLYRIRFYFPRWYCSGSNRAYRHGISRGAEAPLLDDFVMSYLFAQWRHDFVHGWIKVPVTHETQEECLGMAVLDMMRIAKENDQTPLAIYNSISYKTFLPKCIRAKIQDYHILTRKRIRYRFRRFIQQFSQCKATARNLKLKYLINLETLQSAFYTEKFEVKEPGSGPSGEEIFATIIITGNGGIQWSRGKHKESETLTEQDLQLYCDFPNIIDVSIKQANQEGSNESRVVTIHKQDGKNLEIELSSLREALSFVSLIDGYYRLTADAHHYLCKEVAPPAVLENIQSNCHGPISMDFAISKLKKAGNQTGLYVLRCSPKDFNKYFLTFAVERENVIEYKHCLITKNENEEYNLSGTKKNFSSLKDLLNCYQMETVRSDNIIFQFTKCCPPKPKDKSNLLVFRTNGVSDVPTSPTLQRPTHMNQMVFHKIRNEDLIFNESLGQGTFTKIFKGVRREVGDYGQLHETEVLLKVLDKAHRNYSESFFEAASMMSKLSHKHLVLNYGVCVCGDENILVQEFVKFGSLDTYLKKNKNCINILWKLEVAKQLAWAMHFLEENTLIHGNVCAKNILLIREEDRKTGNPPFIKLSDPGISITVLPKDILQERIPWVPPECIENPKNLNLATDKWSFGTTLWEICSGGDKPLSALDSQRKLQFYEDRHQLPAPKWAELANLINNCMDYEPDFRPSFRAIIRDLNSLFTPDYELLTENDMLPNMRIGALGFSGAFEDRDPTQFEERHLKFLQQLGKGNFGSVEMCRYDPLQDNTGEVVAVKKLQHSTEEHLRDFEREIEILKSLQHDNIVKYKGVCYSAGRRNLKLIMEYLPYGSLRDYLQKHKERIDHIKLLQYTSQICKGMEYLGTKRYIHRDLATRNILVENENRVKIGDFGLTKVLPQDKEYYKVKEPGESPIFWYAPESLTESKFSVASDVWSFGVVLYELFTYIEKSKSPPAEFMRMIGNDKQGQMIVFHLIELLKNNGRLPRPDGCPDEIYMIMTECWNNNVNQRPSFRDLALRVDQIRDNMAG
Description: Inhibition of JAK2 (unknown origin) at 10 uM

SMILES	inhibition [1]	inhibition [2]
NC(=O)c1cc(-c2cccc3[nH]ncc23)cc2cn[nH]c12	22.5%	1.2%
NC(=O)c1cc(-c2cc(N)cc3[nH]ncc23)cc2cn[nH]c12	15.7%	9.1%
NC(=O)c1cc(-c2cc(N)cc3[nH]ncc23)cc2c(C#CCO)n[nH]c12	38.1%	-0.4%
NC(=O)c1cc(-c2cccc3[nH]ncc23)cc2c(C#CCO)n[nH]c12	24.9%	2.2%
NC(=O)c1cc(-c2cccc3[nH]ncc23)cc2c(C#CCCO)n[nH]c12	32.3%	6.7%
NC(=O)c1cc(-c2cc(N)cc3[nH]ncc23)cc2c(C#CCCO)n[nH]c12	48.1%	2.5%

Reference: ChEMBL document CHEMBL3102787, “Linear propargylic alcohol functionality attached to the indazole-7-carboxamide as a JAK1-specific linear probe group” (Bioorg Med Chem, 2014)
